Reference: ChEMBL document CHEMBL2413072, “Synthesis and in vitro anticancer studies of novel C-2 arylidene congeners of lantadenes” (2013)

What was measured:
Assay type in all cases: functional
Malme-3M [1] = test: Growth inhibition of human MALME-3M cells assessed as cell growth at 10^-4 M by sulforhodamine B assay; settings: read-out: Activity
SK-OV-3 = test: Growth inhibition of human SKOV3 cells assessed as cell growth at 10^-4 M by sulforhodamine B assay; settings: read-out: Activity
BT-549 = test: Growth inhibition of human BT549 cells by sulforhodamine B assay
MDA-MB-435 [2] = test: Growth inhibition of human MDA-MB-435 cells assessed as cell growth at 10^-4 M by sulforhodamine B assay; settings: read-out: Activity
HOP-62 [3] = test: Growth inhibition of human HOP62 cells assessed as cell growth at 10^-7 M by sulforhodamine B assay; settings: read-out: Activity
MOLT-4 = test: Growth inhibition of human MOLT4 cells assessed as cell growth at 10^-8 M by sulforhodamine B assay; settings: read-out: Activity
OVCAR-3 [4] = test: Growth inhibition of human OVCAR3 cells assessed as cell growth at 10^-6 M by sulforhodamine B assay; settings: read-out: Activity
M14 = test: Growth inhibition of human M14 cells assessed as cell growth at 10^-4 M by sulforhodamine B assay; settings: read-out: Activity
[5] = Growth inhibition of human HCC2998 cells assessed as cell growth at 10^-8 M by sulforhodamine B assay; settings: HCC 2998, read-out: Activity
MDA-MB-468 [6] = test: Growth inhibition of human MDA-MB-468 cells assessed as cell growth at 10^-8 M by sulforhodamine B assay; settings: read-out: Activity
SK-MEL-5 = test: Growth inhibition of human SK-MEL-5 cells by sulforhodamine B assay
CCRF-CEM = test: Growth inhibition of human CCRF-CEM cells assessed as cell growth at 10^-8 M by sulforhodamine B assay; settings: read-out: Activity
MDA-MB-468 [7] = test: Growth inhibition of human MDA-MB-468 cells by sulforhodamine B assay
SNB-19 [8] = test: Growth inhibition of human SNB19 cells assessed as cell growth at 10^-8 M by sulforhodamine B assay; settings: read-out: Activity
U-251 = test: Growth inhibition of human U251 cells by sulforhodamine B assay
UACC-257 = test: Growth inhibition of human UACC257 cells assessed as cell growth at 10^-8 M by sulforhodamine B assay; settings: read-out: Activity
PC-3 = test: Growth inhibition of human PC3 cells assessed as cell growth at 10^-6 M by sulforhodamine B assay; settings: read-out: Activity
MDA-MB-231 = test: Growth inhibition of human MDA-MB-231 cells assessed as cell growth at 10^-4 M by sulforhodamine B assay; settings: read-out: Activity
NCI-H522 = test: Growth inhibition of human NCI-H522 cells assessed as cell growth at 10^-7 M by sulforhodamine B assay; settings: read-out: Activity
[9] = Growth inhibition of human HCC2998 cells assessed as cell growth at 10^-4 M by sulforhodamine B assay; settings: HCC 2998, read-out: Activity
NCI-H226 = test: Growth inhibition of human NCI-H226 cells assessed as cell growth at 10^-6 M by sulforhodamine B assay; settings: read-out: Activity
K562 [10] = test: Growth inhibition of human K562 cells by sulforhodamine B assay
SN12C [11] = test: Growth inhibition of human SN12C cells assessed as cell growth at 10^-6 M by sulforhodamine B assay; settings: read-out: Activity
SNB-19 [12] = test: Growth inhibition of human SNB19 cells assessed as cell growth at 10^-7 M by sulforhodamine B assay; settings: read-out: Activity
MDA-MB-435 [13] = test: Growth inhibition of human MDA-MB-435 cells assessed as cell growth at 10^-6 M by sulforhodamine B assay; settings: read-out: Activity
[14] = Growth inhibition of human Hs 578T cells assessed as cell growth at 10^-8 M by sulforhodamine B assay; settings: read-out: Activity
MDA-MB-468 [15] = test: Growth inhibition of human MDA-MB-468 cells assessed as cell growth at 10^-7 M by sulforhodamine B assay; settings: read-out: Activity
IGROV-1 = test: Growth inhibition of human IGROV1 cells by sulforhodamine B assay
SNB-19 [16] = test: Growth inhibition of human SNB19 cells by sulforhodamine B assay
HCT-15 = test: Growth inhibition of human HCT15 cells assessed as cell growth at 10^-6 M by sulforhodamine B assay; settings: read-out: Activity
SN12C [17] = test: Growth inhibition of human SN12C cells assessed as cell growth at 10^-4 M by sulforhodamine B assay; settings: read-out: Activity
SK-MEL-2 = test: Growth inhibition of human SK-MEL-2 cells assessed as cell growth at 10^-7 M by sulforhodamine B assay; settings: read-out: Activity
K562 [18] = test: Growth inhibition of human K562 cells assessed as cell growth at 10^-8 M by sulforhodamine B assay; settings: read-out: Activity
SN12C [19] = test: Growth inhibition of human SN12C cells by sulforhodamine B assay
ACHN = test: Growth inhibition of human ACHN cells assessed as cell growth at 10^-4 M by sulforhodamine B assay; settings: read-out: Activity
Malme-3M [20] = test: Growth inhibition of human MALME-3M cells assessed as cell growth at 10^-8 M by sulforhodamine B assay; settings: read-out: Activity
OVCAR-3 [21] = test: Growth inhibition of human OVCAR3 cells assessed as cell growth at 10^-4 M by sulforhodamine B assay; settings: read-out: Activity
SF-295 = test: Growth inhibition of human SF295 cells assessed as cell growth at 10^-4 M by sulforhodamine B assay; settings: read-out: Activity
HOP-62 [22] = test: Growth inhibition of human HOP62 cells by sulforhodamine B assay
[23] = read-out: LC50 (the source's name)
[24] = read-out: pLC50 (the source's name) (converted)

## C/C=C(/C)C(=O)O[C@@H]1CC(C)(C)C[C@H]2C3=CC[C@@H]4[C@@]5(C)CC[C@H](O)C(C)(C)[C@@H]5CC[C@@]4(C)[C@]3(C)CC[C@@]12C(=O)O [Reduced Lantadene A]
Malme-3M [1]
  growth at 100 µM: -62%
SK-OV-3
  growth at 100 µM: 4%
BT-549; read-out: GI50
  GI50: 1.94 µM
BT-549; [23]
  CC50: 8.53 µM
BT-549; read-out: TGI
  TGI: 4.06 µM
BT-549; read-out: pGI50 (converted)
  GI50: 1.95 µM
BT-549; [24]
  CC50: 8.51 µM
BT-549; read-out: pTGI (converted)
  TGI: 4.07 µM
MDA-MB-435 [2]
  growth at 100 µM: -47%
HOP-62 [3]
  growth at 0.1 µM: 95%
MOLT-4
  growth at 0.01 µM: 103%
OVCAR-3 [4]
  growth at 1 µM: 104%
M14
  growth at 100 µM: -48%
[5]
  growth at 0.01 µM: 99%
MDA-MB-468 [6]
  growth at 0.01 µM: 93%
SK-MEL-5; read-out: GI50
  GI50: 1.8 µM
SK-MEL-5; [23]
  CC50: 17.2 µM
SK-MEL-5; read-out: TGI
  TGI: 4.39 µM
SK-MEL-5; read-out: pGI50 (converted)
  GI50: 1.78 µM
SK-MEL-5; [24]
  CC50: 17.4 µM
SK-MEL-5; read-out: pTGI (converted)
  TGI: 4.37 µM
CCRF-CEM
  growth at 0.01 µM: 98%
MDA-MB-468 [7]; read-out: GI50
  GI50: 1.68 µM
MDA-MB-468 [7]; [23]
  CC50: 7.86 µM
MDA-MB-468 [7]; read-out: TGI
  TGI: 3.64 µM
MDA-MB-468 [7]; read-out: pGI50 (converted)
  GI50: 1.7 µM
MDA-MB-468 [7]; [24]
  CC50: 7.94 µM
MDA-MB-468 [7]; read-out: pTGI (converted)
  TGI: 3.63 µM
SNB-19 [8]
  growth at 0.01 µM: 90%
U-251; read-out: GI50
  GI50: 1.59 µM
U-251; [23]
  CC50: 6.6 µM
U-251; read-out: TGI
  TGI: 3.24 µM
U-251; read-out: pGI50 (converted)
  GI50: 1.58 µM
U-251; [24]
  CC50: 6.61 µM
U-251; read-out: pTGI (converted)
  TGI: 3.24 µM
UACC-257
  growth at 0.01 µM: 93%
PC-3
  growth at 1 µM: 70%
MDA-MB-231
  growth at 100 µM: -63%
NCI-H522
  growth at 0.1 µM: 100%
[9]
  growth at 100 µM: -58%
NCI-H226
  growth at 1 µM: 83%
K562 [10]; read-out: GI50
  GI50: 2.64 µM
K562 [10]; read-out: LC50
  LC50: > 100 µM
K562 [10]; read-out: TGI
  TGI: 30.4 µM
K562 [10]; read-out: pGI50 (converted)
  GI50: 2.63 µM
K562 [10]; read-out: pLC50 (converted)
  LC50: > 100 µM
K562 [10]; read-out: pTGI (converted)
  TGI: 30.2 µM
SN12C [11]
  growth at 1 µM: 83%
SNB-19 [12]
  growth at 0.1 µM: 90%
MDA-MB-435 [13]
  growth at 1 µM: 90%
[14]
  growth at 0.01 µM: 94%
MDA-MB-468 [15]
  growth at 0.1 µM: 86%
IGROV-1; read-out: GI50
  GI50: 2.32 µM
IGROV-1; [23]
  CC50: 9.24 µM
IGROV-1; read-out: TGI
  TGI: 4.63 µM
IGROV-1; read-out: pGI50 (converted)
  GI50: 2.29 µM
IGROV-1; [24]
  CC50: 9.33 µM
IGROV-1; read-out: pTGI (converted)
  TGI: 4.68 µM
SNB-19 [16]; read-out: GI50
  GI50: 1.65 µM
SNB-19 [16]; read-out: TGI
  TGI: 3.37 µM
SNB-19 [16]; read-out: pGI50 (converted)
  GI50: 1.66 µM
SNB-19 [16]; read-out: pTGI (converted)
  TGI: 3.39 µM
HCT-15
  growth at 1 µM: 82%
SN12C [17]
  growth at 100 µM: -51%
SK-MEL-2
  growth at 0.1 µM: 106%
K562 [18]
  growth at 0.01 µM: 107%
SN12C [19]; read-out: GI50
  GI50: 1.63 µM
SN12C [19]; [23]
  CC50: 7.22 µM
SN12C [19]; read-out: TGI
  TGI: 3.43 µM
SN12C [19]; read-out: pGI50 (converted)
  GI50: 1.62 µM
SN12C [19]; [24]
  CC50: 7.24 µM
SN12C [19]; read-out: pTGI (converted)
  TGI: 3.47 µM
ACHN
  growth at 100 µM: -69%
Malme-3M [20]
  growth at 0.01 µM: 94%
OVCAR-3 [21]
  growth at 100 µM: -48%
SF-295
  growth at 100 µM: -57%
HOP-62 [22]; read-out: GI50
  GI50: 1.87 µM
HOP-62 [22]; read-out: TGI
  TGI: 3.55 µM
HOP-62 [22]; read-out: pGI50 (converted)
  GI50: 1.86 µM
HOP-62 [22]; read-out: pTGI (converted)
  TGI: 3.55 µM
